Assays:
[1] = test system: M. luteus Q24; test: Inhibition by potential prebiotics spotted on a Q24 lawn; assay type: cell-based, Streptococcus salivarius; conditions: 20 μL spots, 24 hours at 37° C.; for Suitable to be used in Q24 containing serum/product?: 100% to 0.3% (oils at 100% only); for inhibitory concentration vs Blis Q24: 100% to 0.3%
Description: CABK12 agar plates were split into segments of 6 and […] suspension of M. luteus […] raw ingredient P3. Each of the aqueous potential prebiotic substances to be screened were serially diluted in a range of concentrations from 100% to 0.3% using sterile distilled water. Oil based substances were tested at 100% only. 20 μL of each concentration, of each substance were pipetted into a spot onto one segment of the […]12 agar plate and was incubated for 24 hours at 37° C. 5% CO2 in air.

[2] = test system: EpiDerm tissues; test: EpiDerm safety experiment, cytokine levels day 0 and day 4; assay type: cell-based, human; conditions: Blis Q24 1×10^8 CFU/ml or vitamin C 50 μg/mL
Description: Upon receipt, the final development of the immature EpiDerm (EPI-201-4D; MatTekCorporation, Ashland, MA, USA) tissues was completed following the manufacturer's instructions. In brief, the tissues were transferred from the agarose-containing gel on which they were shipped to cell culture plates containing pre-warmed differentiation medium (EPI-201-DM). They were then maintained at 37° C. in a 5% CO2 atmosphere for 4 days, with 2 or […] changes to fresh differentiation medium during that period. Finally, the fully developed EpiDerm tissues were transferred to fresh plates containing standard culture medium (EPI-100-NMM) for use in each experiment.
(§1) The maturation of 36 immature EpiDerm tissues was performed as described above. The fully differentiated tissues were numbered from 1-36 and were randomly assigned to receive one of the treatments shown in Table 3. This was done such that each of the 6 combinations of main treatment (PBS, Q24 or vitamin C) and 0.5% SDS exposure treatment (±0.5% SDS) was randomly represented on each of five 6-well cell culture plates. The remaining 6 tissues, which were destined for histology or else to receive 5% SDS, were grouped together on the sixth cell culture plate. Following maturation, the 36 tissues were cultured in the assay medium for 24 h at 37° C. in a 5% CO2 atmosphere, after which the baseline (day 0) conditioned media samples were collected and stored frozen at −80° C. for cytokine measurement. […] The viabilities of the other 33 tissues were assessed using the MTT viability assay.
(§2) For quantification of IL-1β, IFN-α2, IFN-γ, TNF-α, MCP-1 (CCL2), IL-6, IL-8 (CXCL8), IL-10, IL-12p70, IL-17A, 1L-18, IL-23, and IL-33, bead-based multiplex LEGENDplex™ analysis(LEGENDplex™ Human Inflammation Panel 1 (13-plea); BioLegend, San Diego, CA, USA) was used according to the manufacturer's instructions. The relevance of each of the measured cytokines is described in Table 4. […] Data were analysed via Legendplex V8.0 software (BioLegend) and specified as pg/mL.

[3] = test system: EpiDerm tissues; test: EpiDerm anti-inflammatory effect, cytokine release in response to 0.5% SDS; assay type: cell-based, human; conditions: pre-treatment, day 5 vs day 4
Description: as §1, §2

[4] = test system: Blis Q24; test: Effect of prebiotics on the growth of Blis Q24 in M17 broth; assay type: cell-based, Micrococcus luteus; conditions: 5% prebiotic in M17 broth
Description: A batch of M17 broth (Difco #218561) was made, excluding the lactose solution, by following the manufacturer's instructions. 50 ml of broth was dispensed into sterile 100 ml Schott bottles and 2.5 g (5%) of each potential prebiotic substance was added and mixed well using a magnetic stirrer and stir plate. The mixtures were autoclaved at 110° C. for 10 minutes and allowed to cool. The suspensions of the prebiotic candidates were prewarmed to 40° C. in order to allow for increased homogenisation of any oil-based components prior to dispensing into the wells. 2 ml of each suspension and an M17 only (control) were pipetted into a sterile 24 well tissue culture plate. A suspension of […] raw ingredient P3 was made in PBS and adjusted to an optical density of 0.125. 100 μl of the suspension was pipetted into each well. Once the suspension was added each well was mixed by aspirating and dispensing the solution 5 times with a 1 ml pipette. Each sample was enumerated at time points 0, 3, 6, 15, 26 and 34 hours using the following method. […] The number of colonies in each spot were then counted using an electronic colony counter and average to give the final result. […] Olive squalene was selected as one of the preferred prebiotics with 3 others that were analysed in combination with olive squalene and compared to the results of the prebiotic candidates alone (FIG. 13).

[5] = test system: skin commensals S. epidermidis #4, S. epidermidis E30, S. hominis ATCC 27844; test: Prebiotic activity against skin commensals (growth); assay type: cell-based; conditions: FIG. 14
Description: The same method was used as above for Blis Q24 ingredient except the suspensions with optical density of 0.125 were prepared for each of the 3 selected skin commensals.
The skin commensals selected were: • S. epidermidis #4—Sensitive to Q24 inhibition • S. epidermidis E30—Resistant to Q24 inhibition • S. hominis ATCC 27844—Mixed resistance condition dependent

Hyaluronic acid
Suitable to be used in Q24 containing serum/product? [1]: Yes

Cc1c(C)c2c(c(C)c1O)CC[C@@](C)(CCC[C@H](C)CCC[C@H](C)CCCC(C)C)O2 [Vitamin E, D Alpha Tocopherol 1000IU, D Alpha Tocopherol]
Suitable to be used in Q24 containing serum/product? [1]: Yes

O=C(O)c1ccccc1O [Salicylic acid (SA), Salicylic acid]
Suitable to be used in Q24 containing serum/product? [1]: No
inhibitory concentration vs Blis Q24 [1]: > 5%

NC(=O)NC1NC(=O)NC1=O (stereo not drawn) [Allantoin]
Suitable to be used in Q24 containing serum/product? [1]: Yes

O=C1O[C@H]([C@@H](O)CO)C(O)=C1O [Vitamin C (Ascorbic acid), Ascorbic acid]
IL-6 levels, day 4 vs day 0 ([2]; daily for 4 days): slight but significant increase
IL-8 levels, day 4 vs day 0 ([2]; daily for 4 days): unchanged
IL-18 levels, day 4 vs day 0 ([2]; no significant differences): trend for lower values
Suitable to be used in Q24 containing serum/product? [1]: Yes
IL-6 released in response to 0.5% SDS [3]: slight increase

NC(=O)c1cccnc1 [Niacinamide]
Suitable to be used in Q24 containing serum/product? [1]: Yes

OC[C@@H](O)[C@H](O)[C@@H](O)CO [Xylitol]
growth of Q24 compared to the control [4]: detrimental to the live Q24 cell count at 24 hours
Suitable to be used in Q24 containing serum/product? [1]: Yes

CC(C)=CCC/C(C)=C/CC/C(C)=C/CC/C=C(\C)CC/C=C(\C)CCC=C(C)C [Olive Squalene]
growth of skin commensals compared to control media [5]: do not offer any advantage
Suitable to be used in Q24 containing serum/product? [1]: Yes

CC1=C(/C=C/C(C)=C/C=C/C(C)=C/CO)C(C)(C)CCC1 [Retinol (Vitamin A), Retinol]
Suitable to be used in Q24 containing serum/product? [1]: Yes

CC(O)C(=O)O (stereo not drawn) [Lactic acid (LA), Lactic acid]
Suitable to be used in Q24 containing serum/product? [1]: No
inhibitory concentration vs Blis Q24 [1]: > 2.5%

Reference: patent US20240156718A1, “TOPICAL COMPOSITION AND USE THEREOF” (BLIS TECHNOLOGIES LIMITED, priority 2021, published 2024)
